Measured values as given in US20230053688A1, “METHODS TO ALTER LATENCY IN EBV+ MALIGNANCIES” (Cornell University, priority 2020, published 2023).
Structures can show the parent of a compound that is named as a salt. Where two headings read alike, the source gives them in different places.

Tested on: LMP1 expression in Kem I cells
Assay: microbe, parasite or virus in culture
Assay type: cell-based, EBV
Conditions: for Average LMP1 Fold Increase / Replicate 1-LMP1 Fold Increase / Replicate 2-LMP1 Fold Increase: Kem I cells, 48 hours; for fold induction at 2.5 µM: human gammaherpesvirus 4, 48 h
[1] = 2.5 uM, average of replicates 1 and 2
[2] = 2.5 uM, fold change in LMP1 transcript vs vehicle
[3] = read-out: Average LMP1 Fold Increase, Kem I cells, 2.5 uM, 48 hours, average of replicates 1 and 2
[4] = read-out: Replicate 1-LMP1 Fold Increase, Kem I cells, 2.5 uM, 48 hours, fold change in LMP1 transcript vs vehicle
[5] = read-out: Replicate 2-LMP1 Fold Increase, Kem I cells, 2.5 uM, 48 hours, fold change in LMP1 transcript vs vehicle
[6] = dose 2.5 uM, LMP1 transcript by in-well qRT-PCR, average of the two replicates
[7] = dose 2.5 uM, LMP1 transcript by in-well qRT-PCR, screen replicate 1
[8] = dose 2.5 uM, LMP1 transcript by in-well qRT-PCR, screen replicate 2
[9] = read-out: Average LMP1 Fold Increase, Kem I cells, dose 2.5 uM, 48 hours, LMP1 transcript by in-well qRT-PCR, average of the two replicates
[10] = read-out: Replicate 1-LMP1 Fold Increase, Kem I cells, dose 2.5 uM, 48 hours, LMP1 transcript by in-well qRT-PCR, screen replicate 1
[11] = read-out: Replicate 2-LMP1 Fold Increase, Kem I cells, dose 2.5 uM, 48 hours, LMP1 transcript by in-well qRT-PCR, screen replicate 2

In the case of `Cc1ccc(C(=O)N(CCCN)[C@@H](c2oc3cc(Cl)ccc3c(=O)c2Cc2ccccc2)C(C)C)cc1` [SB743921], the “Average LMP1 Fold Increase” value [1] is reported as 1.76, the “Replicate 1-LMP1 Fold Increase” value [2] is reported as 1.10 and the “Replicate 2-LMP1 Fold Increase” value [2] is reported as 2.41.
In the case of `O=C(NNc1nc2cc(F)ccc2n2cccc12)c1cnccn1` [SC144], the “Average LMP1 Fold Increase” value [1] is reported as 1.51, the “Replicate 1-LMP1 Fold Increase” value [2] is reported as 1.00 and the “Replicate 2-LMP1 Fold Increase” value [2] is reported as 2.02.
Compound `CC(C)N(CCCNC(=O)Nc1ccc(C(C)(C)C)cc1)C[C@H]1O[C@@H](n2cc(Br)c3c(N)ncnc32)[C@H](O)[C@@H]1O` [SGC 0946] has a fold induction at 2.5 µM [3] of 0.29, a fold induction at 2.5 µM [4] of 0.26 and a fold induction at 2.5 µM [5] of 0.31.
In the case of `Cc1cc(Nc2ccc(NC(=O)c3ccc(Nc4ccnc5ccccc45)cc3)cc2)nc(N)n1` [SGI-1027], the “Average LMP1 Fold Increase” value [1] is reported as 53.53, the “Replicate 1-LMP1 Fold Increase” value [2] is reported as 13.12 and the “Replicate 2-LMP1 Fold Increase” value [2] is reported as 93.95.
For `CN1CCC(CNc2ccc3ncc(-c4cccc(OC(F)(F)F)c4)n3n2)CC1` [SGI-1776 free base], the “Average LMP1 Fold Increase” value [1] was 1.26, the “Replicate 1-LMP1 Fold Increase” value [2] was 1.94 and the “Replicate 2-LMP1 Fold Increase” value [2] was 0.57.
In the case of `Oc1ccc(Nc2nc(-c3ccc(Cl)cc3)cs2)cc1` [SKI II], the “Average LMP1 Fold Increase” value [1] is reported as 1.00, the “Replicate 1-LMP1 Fold Increase” value [2] is reported as 0.96 and the “Replicate 2-LMP1 Fold Increase” value [2] is reported as 1.03.
With `O=C1NC(=O)/C(=C/c2cccc(C(F)(F)F)c2)S1` [SMI-4a] the “Average LMP1 Fold Increase” value [1] was 0.41, the “Replicate 1-LMP1 Fold Increase” value [2] was 0.29 and the “Replicate 2-LMP1 Fold Increase” value [2] was 0.53.
With `CC(C)(C)c1cnc(CSc2cnc(NC(=O)C3CCNCC3)s2)o1` [SNS-032 (BMS-387032)] the “Average LMP1 Fold Increase” value [1] was 23.97, the “Replicate 1-LMP1 Fold Increase” value [2] was 23.56 and the “Replicate 2-LMP1 Fold Increase” value [2] was 24.39.
Work on `Oc1c2ccccc2c2c3c(cccc13)N=N2` [SP600125] yielded a fold induction at 2.5 µM [3] of 0.6, a fold induction at 2.5 µM [4] of 0.67 and a fold induction at 2.5 µM [5] of 0.53.
`O=C(Nc1cc(C(F)(F)F)ccc1N1CCCCC1)c1ccncc1` [SRPIN340] was tested, and the “Average LMP1 Fold Increase” value [1] was 0.84, the “Replicate 1-LMP1 Fold Increase” value [2] was 1.24 and the “Replicate 2-LMP1 Fold Increase” value [2] was 0.44.
With `O=C(Nc1ccccc1-c1cn2c(CN3CCNCC3)csc2n1)c1cnc2ccccc2n1` [SRT1720] the “Average LMP1 Fold Increase” value [1] was 0.64, the “Replicate 1-LMP1 Fold Increase” value [2] was 0.58 and the “Replicate 2-LMP1 Fold Increase” value [2] was 0.70.
For `COc1c(C)c(C(=O)c2ccc(N)c(C(=O)[O-])c2)n2ccccc12.[Na+]` [SSR128129E], the “Average LMP1 Fold Increase” value [1] was 0.44, the “Replicate 1-LMP1 Fold Increase” value [2] was 0.36 and the “Replicate 2-LMP1 Fold Increase” value [2] was 0.52.
`Cc1ccc(S(=O)(=O)Cc2nc(-c3ccc(C(=O)NCc4cccnc4)cc3)oc2C)cc1` [STF-118804] was tested, and the “Average LMP1 Fold Increase” value [1] was 0.10, the “Replicate 1-LMP1 Fold Increase” value [2] was 0.08 and the “Replicate 2-LMP1 Fold Increase” value [2] was 0.11.
`Cc1[nH]c(/C=C2\C(=O)Nc3ccc(S(=O)(=O)N(C)c4cccc(Cl)c4)cc32)c(C)c1C(=O)N1CCN(C)CC1` [SU11274] showed a fold induction at 2.5 µM [3] of 0.94, a fold induction at 2.5 µM [4] of 1.05 and a fold induction at 2.5 µM [5] of 0.82.
`C[C@H](NCc1ccc(OCc2cccc(F)c2)cc1)C(N)=O` [Safinamide Mesylate] showed a fold induction at 2.5 µM [3] of 0.95, a fold induction at 2.5 µM [4] of 0.2 and a fold induction at 2.5 µM [5] of 1.71.
In the case of `O=C(/C=C/c1ccccc1)NC(NC(=S)Nc1ccc(Cl)cc1)C(Cl)(Cl)Cl` (stereo not drawn) [Sal003], the “Average LMP1 Fold Increase” value [1] is reported as 0.64, the “Replicate 1-LMP1 Fold Increase” value [2] is reported as 0.76 and the “Replicate 2-LMP1 Fold Increase” value [2] is reported as 0.53.
For `Cn1cnc2c(F)c(Nc3ccc(Br)cc3Cl)c(C(=O)NOCCO)cc21` [Selumetinib (AZD6244)], the “Average LMP1 Fold Increase” value [1] was 0.54, the “Replicate 1-LMP1 Fold Increase” value [2] was 0.64 and the “Replicate 2-LMP1 Fold Increase” value [2] was 0.44.
`CC(C)[C@H](O)C(=O)N[C@@H](C)C(=O)N[C@@H]1C(=O)N(C)CCc2ccccc21` [Semagacestat (LY450139)] was tested, and the “Average LMP1 Fold Increase” value [1] was 0.45, the “Replicate 1-LMP1 Fold Increase” value [2] was 0.31 and the “Replicate 2-LMP1 Fold Increase” value [2] was 0.59.
For `CN[C@H]1CC[C@@H](c2ccc(Cl)c(Cl)c2)c2ccccc21` [Sertraline HCl], the fold induction at 2.5 µM [3] was 1.07, the fold induction at 2.5 µM [4] was 0.81 and the fold induction at 2.5 µM [5] was 1.33.
Work on `CC(NC(=O)c1ccccc1/N=C/c1c(O)ccc2ccccc12)c1ccccc1` (stereo not drawn) [Sirtinol] yielded a fold induction at 2.5 µM [3] of 0.6, a fold induction at 2.5 µM [4] of 0.28 and a fold induction at 2.5 µM [5] of 0.92.
For `Cc1cc2c(cc1CC(=O)c1sccc1S(=O)(=O)Nc1onc(C)c1Cl)OCO2` [Sitaxentan sodium], the fold induction at 2.5 µM [3] was 0.25, the fold induction at 2.5 µM [4] was 0.16 and the fold induction at 2.5 µM [5] was 0.34.
For `Nc1ccc(C(=O)O)c(O)c1` [Sodium 4-Aminosalicylate], the fold induction at 2.5 µM [3] was 0.36, the fold induction at 2.5 µM [4] was 0.19 and the fold induction at 2.5 µM [5] was 0.53.
For `CNC(=O)c1cc(Oc2ccc(NC(=O)Nc3ccc(Cl)c(C(F)(F)F)c3)cc2)ccn1` [Sorafenib], the fold induction at 2.5 µM [3] was 0.54, the fold induction at 2.5 µM [4] was 0.43 and the fold induction at 2.5 µM [5] was 0.64.
Compound `CN1CCN(c2nc(C3=C(c4c[nH]c5ccccc45)C(=O)NC3=O)c3ccccc3n2)CC1` [Sotrastaurin] has a fold induction at 2.5 µM [3] of 0.31, a fold induction at 2.5 µM [4] of 0.3 and a fold induction at 2.5 µM [5] of 0.31.
For `O=[N+]([O-])c1ccc2c(c1)S(=O)(=O)C=C2` [Stattic], the “Average LMP1 Fold Increase” value [1] was 26.57, the “Replicate 1-LMP1 Fold Increase” value [2] was 50.36 and the “Replicate 2-LMP1 Fold Increase” value [2] was 2.79.
With `Cc1cn([C@H]2C=C[C@@H](CO)O2)c(=O)[nH]c1=O` [Stavudine (d4T)] the “Average LMP1 Fold Increase” value [1] was 0.73, the “Replicate 1-LMP1 Fold Increase” value [2] was 0.83 and the “Replicate 2-LMP1 Fold Increase” value [2] was 0.63.
For `Cc1ccc(-n2nccn2)c(C(=O)N2CCN(c3nc4cc(Cl)ccc4o3)CC[C@H]2C)c1` [Suvorexant (MK-4305)], the “Average LMP1 Fold Increase” value [6] was 1.47 fold, the “Replicate 1-LMP1 Fold Increase” value [7] was 0.37 fold and the “Replicate 2-LMP1 Fold Increase” value [8] was 2.57 fold.
For `O=C(Nc1ccncc1)c1cc([N+](=O)[O-])ccc1Cl` [T0070907], the “Average LMP1 Fold Increase” value [6] was 0.56 fold, the “Replicate 1-LMP1 Fold Increase” value [7] was 0.63 fold and the “Replicate 2-LMP1 Fold Increase” value [8] was 0.50 fold.
`O=S(=O)(c1ccccc1)N(CC(F)(F)F)c1ccc(C(O)(C(F)(F)F)C(F)(F)F)cc1` [T0901317] showed a fold induction at 2.5 µM [9] of 0.44, a fold induction at 2.5 µM [10] of 0.41 and a fold induction at 2.5 µM [11] of 0.47.
With `CNC(=O)c1ccccc1Nc1nc(Nc2ccc(N3CCOCC3)cc2OC)ncc1Cl` [TAE226 (NVP-TAE226)] the “Average LMP1 Fold Increase” value [6] was 1.35 fold, the “Replicate 1-LMP1 Fold Increase” value [7] was 1.38 fold and the “Replicate 2-LMP1 Fold Increase” value [8] was 1.31 fold.
With `CNC(=O)c1ccc2cc([C@@]3(O)CCn4cncc43)ccc2c1` [TAK-700 (Orteronel)] the “Average LMP1 Fold Increase” value [6] was 0.90 fold, the “Replicate 1-LMP1 Fold Increase” value [7] was 0.75 fold and the “Replicate 2-LMP1 Fold Increase” value [8] was 1.06 fold.
For `Cc1cc(OCCCS(C)(=O)=O)cc(C)c1-c1cccc(COc2ccc3c(c2)OC[C@H]3CC(=O)O)c1` [TAK-875], the fold induction at 2.5 µM [9] was 0.57, the fold induction at 2.5 µM [10] was 0.55 and the fold induction at 2.5 µM [11] was 0.59.
In the case of `O=C1CC(=O)c2c(Cl)c(Cl)c(Cl)c(Cl)c21` [TCID], the “Average LMP1 Fold Increase” value [6] is reported as 0.52 fold, the “Replicate 1-LMP1 Fold Increase” value [7] is reported as 0.66 fold and the “Replicate 2-LMP1 Fold Increase” value [8] is reported as 0.38 fold.
`COc1ccc(C(=O)Nc2sc3c(c2C(N)=O)CCCC3)cc1OC` [TCS 359] was tested, and the “Average LMP1 Fold Increase” value [6] was 0.40 fold, the “Replicate 1-LMP1 Fold Increase” value [7] was 0.62 fold and the “Replicate 2-LMP1 Fold Increase” value [8] was 0.19 fold.
With `Nc1nc(N)c2nc(-c3cccc(O)c3)c(-c3cccc(O)c3)nc2n1` [TG100-115] the “Average LMP1 Fold Increase” value [6] was 0.53 fold, the “Replicate 1-LMP1 Fold Increase” value [7] was 0.33 fold and the “Replicate 2-LMP1 Fold Increase” value [8] was 0.73 fold.
For `NC(=O)Nc1sc(-c2ccc(F)cc2)cc1C(N)=O` [TPCA-1], the “Average LMP1 Fold Increase” value [6] was 0.48 fold, the “Replicate 1-LMP1 Fold Increase” value [7] was 0.59 fold and the “Replicate 2-LMP1 Fold Increase” value [8] was 0.36 fold.
For `Nc1cccc(-c2cc3c(Oc4cccc(O)c4)ncnc3[nH]2)c1` [TWS119], the “Average LMP1 Fold Increase” value [6] was 0.56 fold, the “Replicate 1-LMP1 Fold Increase” value [7] was 0.62 fold and the “Replicate 2-LMP1 Fold Increase” value [8] was 0.49 fold.
